These results are taken from patent publication US8999956B2, “N-[(het)arylalkyl)] pyrazole(thio)carboxamides and their heterosubstituted analogues” (Bayer Intellectual Property GmbH, priority 2010, dated 2015).

Broadly, the logP is the decadic logarithm of the partition coefficient of the neutral form, usually between octanol and water. A low value points to lower lipophilicity.

Data set [1] can be described thus: log P by HPLC on reversed-phase column (EEC Directive 79/831 Annex V.A8). Format: physicochemical. How it is done: In table 1, the log P values were determined in accordance with EEC Directive 79/831 Annex V.A8 by HPLC (High Performance Liquid Chromatography) on a reversed-phase column (C18), using the method described below: Temperature: 40° C.; […]
Data set [2] has as its system aflatoxines produced by Aspergillus parasiticus. The experiment in a line: microbe, parasite or virus in culture. Format: cell-based.
In data set [3] the test system is Alternaria solani. The data set is described as follows: In vivo preventive test on Alternaria solani (tomato). The conditions noted are these: 500 ppm of active ingredient, evaluated 7 days after inoculation. How it is done: Solvent: 49 parts by weight of N,N-dimethylformamide Emulsifier: 1 part by weight of Alkylarylpolyglycolether To produce a suitable preparation of active compound, 1 part by weight of active compound is mixed with the stated amounts of solvent and emulsifier, and the concentrate is diluted with water to the desired concentration. To test for preventive activity, young plants are sprayed with the preparation of active compound at the stated rate of application. One day after this treatment, the plants are inoculated with an aqueous spore suspension of Alternaria solani.

For data set [4], the system named is Aspergillus parasiticus. The data set is described as follows: microbe, parasite or virus in culture. It counts as cell-based.
For data set [5], the system named is Pyrenophora teres. The experiment in a line: In vivo preventive test on Pyrenophora teres (barley). The conditions noted are these: 500 ppm of active ingredient, evaluated 7-9 days after inoculation. How it is done:
Solvent: 49 parts by weight of N,N-dimethylformamide Emulsifier: 1 part by weight of alkylaryl polyglycol ether To produce a suitable preparation of active compound, 1 part by weight of active compound is mixed with the stated amounts of solvent and emulsifier, and the concentrate is diluted with water to the desired concentration. To test for preventive activity, young plants are sprayed with the preparation of active compound at the stated rate of application. One day after this treatment, the plants are inoculated with an aqueous spore suspension of Pyrenophora teres.

Like-named read-outs stand apart in the source and are kept apart here.

In turn, `CC(CCc1c(Cl)cc(Cl)cc1Cl)N(C(=O)c1c(C(F)F)nn(C)c1Cl)C1CC1` (centres unmarked) [Example 214] came in with a logP in data set [1] of 4.31. In data set [2], the “% Inhibition of Aflatoxin at 50 μM” value is 100%. Moreover, the values for the Efficacy in data set [3] and in data set [5] were 80% and 100%, respectively. The “% Inhibition of fungal growth at 50 μM” value in data set [4] was 93%.
In turn, `Cn1nc(C(F)F)c(C(=O)NC(C)(C)CCc2cc(Cl)cc(Cl)c2)c1Cl` [Example 125] yielded a logP in data set [1] of 4.64. The “% Inhibition of Aflatoxin at 50 μM” value in data set [2] was found to be 96%. For the same molecule, the Efficacy in data set [3] turned out to be 95%; in data set [5] it was 100%. For the same molecule, in data set [4], the “% Inhibition of fungal growth at 50 μM” value is 76%.
Taken in the same sequence, the figures for `Cn1nc(C(F)F)c(C(=O)NC(C)(C)CCc2ccccc2Cl)c1F` [Example 148] were 3.79, 90%, 95%, 95% and 67%.
Taken in the same sequence, the figures for `CC(COc1cc(Cl)ccc1Cl)NC(=O)c1c(C(F)F)nn(C)c1F` (centres unmarked) [Example 173] were 3.46, 100%, 90%, 78% and 85%.
`CCC(C)C(C)N(C(=O)c1c(C(F)F)nn(C)c1Cl)C1CC1` (centres unmarked) [Example 303] had a logP in data set [1] of 3.52. Further, the “% Inhibition of Aflatoxin at 50 μM” value in data set [2] is listed as 100%. The Efficacy turned out to be 80% in data set [3] and 100% in data set [5]. For the same molecule, the “% Inhibition of fungal growth at 50 μM” value in data set [4] was 90%.
As for `Cn1nc(C(F)F)c(C(=O)N(C[Si](C)(C)Cc2ccc(Cl)cc2Cl)C2CC2)c1Cl` [Example 297], in data set [1], the logP was 5.19. For the same molecule, the “% Inhibition of Aflatoxin at 50 μM” value in data set [2] is on record as 100%. Also, the Efficacy in data set [3] and in data set [5] was 100% throughout. For the same molecule, the “% Inhibition of fungal growth at 50 μM” value in data set [4] is recorded as 85%.
Consider `CC(COc1ccc(Cl)cc1Cl)NC(=O)c1c(C(F)F)nn(C)c1F` (centres unmarked) [Example 189], for which, in data set [1], the logP is recorded as 3.58. Besides, in data set [2], the “% Inhibition of Aflatoxin at 50 μM” value was 100%. Further, the results for the Efficacy in data set [3] and in data set [5] were 90% and 100%, respectively. The “% Inhibition of fungal growth at 50 μM” value in data set [4] was 94%.
On to `Cn1nc(C(F)F)c(C(=O)N(CCOc2c(Cl)cccc2Cl)C2CC2)c1F` [Example 124, N-cyclopropyl-N-[2-(2,6-dichlorophenoxy)ethyl]-3-(difluoromethyl)-5-fluoro-1-methyl-1H-pyrazole-4-carboxamide], for which the logP in data set [1] worked out at 4.23. Further, the “% Inhibition of Aflatoxin at 50 μM” value in data set [2] (50 µM) was determined as 99%. The Efficacy turned out to be 95% in data set [3] and 90% in data set [5]. Besides, the “% Inhibition of fungal growth at 50 μM” value in data set [4] (50 µM) came to 81%.
On to `CCC1CCCCC1CNC(=O)c1c(C(F)F)nn(C)c1F` (centres unmarked) [Example 364], for which, in data set [1], the logP was determined as 3.49. In addition, the “% Inhibition of Aflatoxin at 50 μM” value in data set [2] was 99%. The Efficacy is given as 95% in data set [3] and 80% in data set [5]. The “% Inhibition of fungal growth at 50 μM” value in data set [4] is 81%.
For `CC(CCc1ccc(Cl)c(Cl)c1)NC(=O)c1c(C(F)F)nn(C)c1F` (racemic) [Example 132], the lipophilicity (logP) in data set [1] was 3.65. The “% Inhibition of Aflatoxin at 50 μM” value in data set [2] was 100%. Further, the Efficacy in data set [3] and in data set [5] was 100% each time. In addition, the “% Inhibition of fungal growth at 50 μM” value in data set [4] was determined as 85%.
As for `CC(COc1cc(Cl)cc(Cl)c1)NC(=O)c1c(C(F)F)nn(C)c1F` (racemic) [Example 121], the log partition coefficient (logP) in data set [1] is given as 3.72. Further, the “% Inhibition of Aflatoxin at 50 μM” value in data set [2] is 100%. In addition, the figures for the Efficacy in data set [3] and in data set [5] were 90% and 100%, respectively. For the same molecule, the “% Inhibition of fungal growth at 50 μM” value in data set [4] is 98%.
`CC(CSc1ccc(Cl)cc1Cl)NC(=O)c1c(C(F)F)nn(C)c1Cl` (centres unmarked) [Example 192] gave a log partition coefficient (logP) in data set [1] of 4.01. For the same molecule, the “% Inhibition of Aflatoxin at 50 μM” value in data set [2] amounted to 100%. Also, the results for the Efficacy in data set [3] and in data set [5] were 95% and 100%, respectively. In addition, the “% Inhibition of fungal growth at 50 μM” value in data set [4] stood at 91%.
In data set [1], `CC(CCc1ccc(Cl)cc1Cl)N(C(=O)c1c(C(F)F)nn(C)c1Cl)C1CC1` (centres unmarked) [Example 183] yielded a lipophilicity (logP) of 4.72. Besides, the “% Inhibition of Aflatoxin at 50 μM” value in data set [2] worked out at 82%. Further, the Efficacy was 95% in data set [3] and 100% in data set [5]. For the same molecule, the “% Inhibition of fungal growth at 50 μM” value in data set [4] was 79%.
In data set [1], `CN(CCN(C)c1cccc(Cl)c1)C(=O)c1c(C(F)F)nn(C)c1Cl` [Example 81] returned a lipophilicity (logP) of 3.19. For the same molecule, the “% Inhibition of Aflatoxin at 50 μM” value in data set [2] stood at 97%. In data set [3], this molecule gave an Efficacy of 90%. The “% Inhibition of fungal growth at 50 μM” value in data set [4] worked out at 80%.
As to `CC(CNC(=O)c1c(C(F)F)nn(C)c1F)Cc1ccc(Cl)c(Cl)c1` (racemic) [Example 128], in data set [1], the logP is on record as 3.68. Besides, the “% Inhibition of Aflatoxin at 50 μM” value in data set [2] is reported as 83%. Besides, the results for the Efficacy in data set [3] and in data set [5] were 95% and 100%, respectively. The “% Inhibition of fungal growth at 50 μM” value in data set [4] amounted to 71%.
Taken in the same sequence, the figures for `Cc1cccc(C)c1OCCNC(=O)c1c(C(F)F)nn(C)c1F` [Example 151] were 2.88, 100%, 90%, 94% and 100%.
Taken in the same sequence, the figures for `CC(CNC(=O)c1c(C(F)F)nn(C)c1F)Cc1cc(Cl)cc(Cl)c1` (centres unmarked) [Example 116] were 3.83, 100%, 90%, 100% and 82%.
Taken in the same sequence, the figures for `CC(CSc1ccc(Cl)cc1Cl)NC(=O)c1c(C(F)F)nn(C)c1F` (centres unmarked) [Example 191] were 3.76, 100%, 95%, 100% and 100%.
Consider `Cn1nc(C(F)F)c(C(=O)NC(COc2ccc(Cl)cc2Cl)C2CC2)c1F` (centres unmarked) [Example 193], for which the logP in data set [1] turned out to be 3.92. Besides, in data set [2], the “% Inhibition of Aflatoxin at 50 μM” value is recorded as 100%. Moreover, the values for the Efficacy in data set [3] and in data set [5] were 95% and 94%, respectively. The “% Inhibition of fungal growth at 50 μM” value in data set [4] was determined as 92%.
Taken in the same sequence, the figures for `CC(CCc1ccccc1Cl)NC(=O)c1c(C(F)F)nn(C)c1Cl` (racemic) [Example 143] were 3.41, 96%, 100%, 100% and 73%.
For the molecule `Cn1nc(C(F)F)c(C(=O)NCCOc2cc(Cl)ccc2Cl)c1F` [Example 169], in data set [1], the logP came out at 3.11. Further, in data set [2], the “% Inhibition of Aflatoxin at 50 μM” value worked out at 100%. Further, the Efficacy in data set [3] is recorded as 90%. Moreover, the “% Inhibition of fungal growth at 50 μM” value in data set [4] is 84%.
Taken in the same sequence, the figures for `CN(CCN(C)c1cccc(Cl)c1)C(=O)c1c(C(F)F)nn(C)c1F` [Example 82] were 3.02, 100%, 95% and 100%.
In data set [1], `Cn1nc(C(F)F)c(C(=O)NC(C)(C)CCc2cc(Cl)cc(Cl)c2)c1F` [Example 126] showed a lipophilicity (logP) of 4.41. In data set [2], the “% Inhibition of Aflatoxin at 50 μM” value is listed as 100%. Moreover, the Efficacy is listed as 90% in data set [3] and 100% in data set [5]. In data set [4], the “% Inhibition of fungal growth at 50 μM” value was 89%.
As for `CCC(COc1cc(Cl)ccc1Cl)NC(=O)c1c(C(F)F)nn(C)c1F` (centres unmarked) [Example 175], in data set [1], the log partition coefficient (logP) is on record as 3.83. Moreover, the “% Inhibition of Aflatoxin at 50 μM” value in data set [2] was determined as 100%. Also, the Efficacy in data set [3] and in data set [5] was 95% throughout. The “% Inhibition of fungal growth at 50 μM” value in data set [4] is listed as 92%.
`CN(CCCc1ccccc1Cl)C(=O)c1c(C(F)F)nn(C)c1F` [Example 142]: the log partition coefficient (logP) in data set [1] was determined as 3.06. Also, the “% Inhibition of Aflatoxin at 50 μM” value in data set [2] was 100%. Also, the values for the Efficacy in data set [3] and in data set [5] were 100% and 95%, respectively. In data set [4], the “% Inhibition of fungal growth at 50 μM” value is on record as 84%.
`CC(CNC(=O)c1c(C(F)F)nn(C)c1F)Cc1cc(Cl)ccc1Cl` (centres unmarked) [Example 165] had a log partition coefficient (logP) in data set [1] of 3.65. Further, the “% Inhibition of Aflatoxin at 50 μM” value in data set [2] worked out at 99%. The Efficacy in data set [3] stood at 90%; in data set [5] it was 100%. Also, the “% Inhibition of fungal growth at 50 μM” value in data set [4] was determined as 83%.
Taken in the same sequence, the figures for `CCC(COc1cccc2ccccc12)NC(=O)c1c(C(F)F)nn(C)c1F` (centres unmarked) [Example 222] were 3.71, 91%, 90%, 90% and 78%.
Taken in the same sequence, the figures for `CC(COc1ccc(Cl)cc1Cl)NC(=O)c1c(C(F)F)nn(C)c1Cl` (centres unmarked) [Example 190] were 3.76, 88%, 90%, 95% and 77%.
